Laboratory results reported in patent US11185553B2, “Pharmaceutical composition for preventing or treating ischemic-reperfusion injury comprising bile acids” (priority 2016, dated 2021).

Tests used:
beta-catenin = assay: Nuclear beta-catenin luciferase assay in TCF/LEF reporter_HEK293 cell line; format: cell-based; conditions: TCF/LEF reporter_HEK293, 1 μm or 10 μm, 24 hours, FIG. 1
[1] = test system: mitochondrial permeability transition pore (mPTP); assay: TMRM staining of 293T cells after CCCP-induced mPTP opening; format: cell-based; conditions: 1 μM and 10 μM, CCCP 50 μM, FIG. 3
[2] = test system: reperfusion injury mouse model; assay: Mouse myocardial necrosis in reperfusion injury model, Annexin-Vivo750 fluorescent dye; format: in vivo; conditions: Annexin-Vivo750, FIG. 7B
Description: In order to confirm the inhibitory effect of deoxycholic acid among the bile acids on myocardial necrosis caused by reperfusion injury, the test was performed to confirm mouse myocardial necrosis using Annexin-Vivo750 fluorescent dye.
After 24 hours, Annexin-Vivo750 fluorescent dye was injected into the mouse model prepared in Example 3 to examine the effect of deoxycholic acid (1, 2, 5 mg/kg (mpk)) by the concentration. Annexin dyes are known to bind where apoptosis occurs and to show fluorescence.

[3] = test system: reperfusion injury mouse model; assay: Reperfusion injury mouse model, TTC staining of infarcted heart tissue

Compound | beta-catenin levels in the nucleus (luciferase activity) (beta-catenin) | inhibition of mitochondrial injury [1] | decrease of myocardial death compared to the control group with reperfusion surgery ([2]; 1 mpk) [%] | decrease of myocardial death compared to the control group with reperfusion surgery ([2]; 2 mpk) [%] | reduction of the infarcted area ([3]; 2 mg/kg, FIG. 6B) | concentration at which cells died ([3]; reperfusion injury mouse model) [mg/kg] | concentration at which the effect was shown ([3]; reperfusion injury mouse model) [mg/kg]
C[C@H](CCC(=O)NCCS(=O)(=O)O)[C@H]1CC[C@H]2[C@@H]3[C@H](O)C[C@@H]4C[C@H](O)CC[C@]4(C)[C@H]3C[C@H](O)[C@]12C [TauroCA, taurocholic acid] | significantly increased | – | – | – | – | – | –
C[C@H](CCC(=O)O)[C@H]1CC[C@H]2[C@@H]3[C@H](O)C[C@@H]4C[C@H](O)CC[C@]4(C)[C@H]3C[C@H](O)[C@]12C [cholic acid] | significantly increased | about 90% | – | – | – | – | –
C[C@H](CCC(=O)O)[C@H]1CC[C@H]2[C@@H]3CC[C@@H]4C[C@H](O)CC[C@]4(C)[C@H]3C[C@H](O)[C@]12C [deoxycholic acid] | – | about 90% | ≥ 40 | ≥ 40 | about 50% | ≥ 10 | ≤ 2
